Non-standard residues stand in square brackets, D forms with d. Residues, ends and D or L forms follow the SMILES beside them. NMeD = CN[C@@H](CC(=O)O)C(=O)O
Target: fixed activated platelets (Homo sapiens, UniProt P05106+P08514)
Assay: Platelet Aggregation Assay (fibrinogen-mediated aggregation of fixed-activated platelets)
Assay type: cell-based
Details: for IC50: fixed activated platelets, human fibrinogen 250 μg/ml, read-out: Inhibition of Fibrinogen Mediated Platelet Aggregation IC50; for inhibition at 25 µM: read-out: Inhibition of Fibrinogen Mediated Platelet Aggregation % inhibition at 25 μM
Procedure: PLATELET AGGREGATION ASSAY
Preparation of Fixed-Activated Platelets
To the activated platelets is added paraformaldehyde to a final concentration of 0.50% and this incubated at room temperature for 30 minutes. The fixed activated platelets are then collected by centrifugation at 650×g for 15 minutes.
Platelet Aggregation Assay
The fixed activated platelets are incubated with a selected dose of the compound to be tested for platelet aggregation inhibition for one minute and aggregation initiated by addition of human fibrinogen to a final concentration of 250 μg/ml. A platelet aggregation profiler Model PAP-4 is used to record the platelet aggregation.

Sequence of fixed activated platelets (P08514 32-1039): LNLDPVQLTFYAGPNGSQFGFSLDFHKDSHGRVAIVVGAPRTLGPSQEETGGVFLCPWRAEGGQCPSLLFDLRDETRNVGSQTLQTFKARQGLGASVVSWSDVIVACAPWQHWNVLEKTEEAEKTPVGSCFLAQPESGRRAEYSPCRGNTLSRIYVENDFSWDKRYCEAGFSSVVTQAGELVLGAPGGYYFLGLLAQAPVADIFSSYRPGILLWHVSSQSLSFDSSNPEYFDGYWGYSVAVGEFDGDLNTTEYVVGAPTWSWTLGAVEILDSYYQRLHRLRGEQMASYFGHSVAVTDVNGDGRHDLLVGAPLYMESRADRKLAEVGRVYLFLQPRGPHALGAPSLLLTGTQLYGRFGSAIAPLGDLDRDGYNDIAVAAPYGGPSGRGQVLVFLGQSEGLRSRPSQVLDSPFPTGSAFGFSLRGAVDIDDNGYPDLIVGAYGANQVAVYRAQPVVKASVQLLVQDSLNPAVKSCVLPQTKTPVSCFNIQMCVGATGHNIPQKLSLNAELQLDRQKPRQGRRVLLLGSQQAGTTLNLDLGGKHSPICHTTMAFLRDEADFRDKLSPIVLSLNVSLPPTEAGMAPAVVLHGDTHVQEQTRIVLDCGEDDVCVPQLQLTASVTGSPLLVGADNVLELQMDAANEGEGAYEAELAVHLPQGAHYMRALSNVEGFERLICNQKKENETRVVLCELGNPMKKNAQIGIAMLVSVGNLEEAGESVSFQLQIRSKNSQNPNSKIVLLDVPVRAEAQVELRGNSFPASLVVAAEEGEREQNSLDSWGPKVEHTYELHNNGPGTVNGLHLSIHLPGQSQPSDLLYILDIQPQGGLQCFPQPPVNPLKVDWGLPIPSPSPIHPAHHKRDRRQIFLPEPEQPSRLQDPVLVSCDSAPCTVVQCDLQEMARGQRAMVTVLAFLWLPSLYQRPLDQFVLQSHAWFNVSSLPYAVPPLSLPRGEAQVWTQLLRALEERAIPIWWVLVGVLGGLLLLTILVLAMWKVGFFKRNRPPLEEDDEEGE
Sequence of fixed activated platelets (P05106 27-788): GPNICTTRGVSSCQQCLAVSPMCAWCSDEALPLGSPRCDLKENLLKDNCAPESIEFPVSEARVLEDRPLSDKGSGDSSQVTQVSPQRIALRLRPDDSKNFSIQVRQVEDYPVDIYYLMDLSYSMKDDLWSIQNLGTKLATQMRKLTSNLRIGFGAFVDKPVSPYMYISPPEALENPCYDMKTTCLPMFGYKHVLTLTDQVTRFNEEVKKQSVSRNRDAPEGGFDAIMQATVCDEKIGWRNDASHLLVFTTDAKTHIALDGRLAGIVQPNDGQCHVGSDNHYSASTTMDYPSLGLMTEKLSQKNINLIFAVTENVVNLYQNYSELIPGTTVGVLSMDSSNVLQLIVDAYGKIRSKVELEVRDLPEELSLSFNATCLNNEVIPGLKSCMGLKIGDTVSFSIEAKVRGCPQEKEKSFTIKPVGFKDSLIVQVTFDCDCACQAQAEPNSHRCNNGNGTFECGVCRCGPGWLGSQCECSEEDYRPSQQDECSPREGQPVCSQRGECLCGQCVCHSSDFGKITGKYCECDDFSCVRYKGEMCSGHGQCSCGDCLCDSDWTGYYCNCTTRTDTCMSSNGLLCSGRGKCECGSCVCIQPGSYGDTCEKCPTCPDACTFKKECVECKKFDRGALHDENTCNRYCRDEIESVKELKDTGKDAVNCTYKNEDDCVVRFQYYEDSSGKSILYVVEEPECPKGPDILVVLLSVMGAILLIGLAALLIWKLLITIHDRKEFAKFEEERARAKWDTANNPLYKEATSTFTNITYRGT

| Compound | IC50 | inhibition at 25 µM | inhibition at 100 µM (read-out: Inhibition of Fibrinogen Mediated Platelet Aggregation % inhibition at 100 μM) |
| --- | --- | --- | --- |
| CC(C)C[C@H](NC(=O)[C@H](CC(=O)O)NC(=O)CCCCCCCCNC(=N)N)C(=O)N[C@@H](CCCNC(=N)N)C(=O)O [9-Guanidinononanoyl-L-aspartyl-L-leucyl-L-arginine] | 0.52 µM | 96% |  |
| CC(C)[C@H](NC(=O)[C@H](CC(=O)O)NC(=O)CCCCCCCNC(=N)N)c1nnn[nH]1 [8-Guanidinooctanoyl-L-aspartyl-L-valine-5-tetrazole] | > 25 µM | 32% |  |
| CC(C)CC(CCCN)(NC(=O)[C@H](CC(=O)O)NC(=O)CCCCCCCCNC(=N)N)C(=O)O (stereo partly drawn) [9-Guanidinononanoyl-L-aspartyl-(R,S)-α-isobutylornithine] | > 25 µM | 4% |  |
| CC[C@H](C)[C@H](NC(=O)[C@@H](NC(=O)[C@H](CC(=O)O)NC(=O)CCCCCCCCNC(=N)N)[C@@H](C)CC)C(=O)O [9-Guanidinononanoyl-L-aspartyl-L-isoleucyl-L-isoleucine] | > 25 µM | 45% |  |
| CCC(C)C[C@@H](NC(=O)[C@H](CC(=O)O)NC(=O)CCCCCCCCNC(=N)N)C(=O)N[C@@H](CCCNC(=N)N)C(=O)O (stereo partly drawn) [9-Guanidinononanoyl-L-aspartyl-D-homoisoleucyl-L-arginine] |  | 98% |  |
| CC(C)[C@H](NC(=O)[C@H](CC(=O)O)N(C)C(=O)CNC(=O)[C@@H](N)CCCNC(=N)N)C(=O)O [L-arginyl-glycyl-L-N-methylaspartyl-L-valine] (H-RG[NMeD]V-OH) | > 64 µM |  |  |
| CC[C@@H](C)[C@H](CC(=O)NCCCCNC(=N)N)NC(=O)[C@H](CC(=O)O)NC(=O)CCCCCCCCNC(=N)N [9-Guanidinononanoyl-L-aspartyl-D-β-homoiso-leucyl-(des-carboxy)-L-arginine] | 3.3 µM | 94% |  |
| CC(C)(C)[C@H](NC(=O)[C@H](CC(=O)O)NC(=O)CCCCCCCCNC(=N)N)C(=O)N[C@@H](CCCNC(=N)N)C(=O)O [9-Guanidinononanoyl-L-aspartyl-L-t-butylglycyl-L-arginine] | 1.5 µM | 96% |  |
| CC(C)[C@H](NC(=O)[C@H](CC(=O)O)NC(=O)CN(C)C(=O)CCCCCn1ccnc1)C(=O)O [6-(Imidazol-1-yl)-hexanoylsarcosyl-L-aspartyl] |  | 94% |  |
| CCC(C)C(CNC(=O)[C@H](CC(=O)O)NC(=O)CCCCCCCCNC(=N)N)C(=O)N[C@@H](CCCNC(=N)N)C(=O)O (stereo partly drawn) [N-(9-Guanidinononanoyl-L-aspartyl)-3-amino-2-sec-butyl propionic acid L-arginine amide] |  | 89% |  |
| N=C(N)NCCC[C@H](N)C(=O)NCC(=O)N[C@@H](CC(=O)O)C(=O)NCC(=O)O [L-arginylglycyl-L-aspartyl glycine] (H-RGDG-OH) | 14.3 µM |  | 91% |
| CC(C)C[C@@H](CCCNC(=N)N)NC(=O)[C@H](CC(=O)O)NC(=O)CCCCCCCCNC(=N)N [(R)-4-[N-(9-Guanidinononanoyl-L-aspartyl)-amino]-4-isobutylbutylguanidine] |  | 94% |  |
| C[C@H](NC(=O)[C@H](CC(=O)O)NC(=O)CCCCCCCCNC(=N)N)C(=O)N[C@@H](CCCNC(=N)N)C(=O)O [9-Guanidinononanoyl-L-aspartyl-L-alanyl-L-arginine] | 0.54 µM | 89% |  |
| CC[C@H](C)[C@@H](CN[C@@H](CCCNC(=N)N)C(=O)O)NC(=O)[C@H](CC(=O)O)NC(=O)CCCCCCCCNC(=N)N [9-Guanidinononanoyl-L-aspartyl-β-homo-L-isoleucyl psi(CH2 NH)-L-arginine] |  | 38% |  |
| CCCCOC(=O)C[C@H](NC(=O)CN(C)C(=O)CCCCCNC(=N)N)C(=O)N[C@H](C(=O)O)C(C)C [6-Guanidinohexanoyl-sarcosyl-L-aspartyl-β-butylester-L-valine] | > 25 µM | 18% |  |
| CCC(C)[C@H](CCCNC(=N)N)NC(=O)[C@H](CC(=O)O)NC(=O)CCCCCCCCNC(=N)N (stereo partly drawn) [9-Guanidinononanoyl-L-aspartyl-((S)-4-amino-4-sec-butylbutyl)guanidine] |  | 76% |  |

— patent US5332726A, “Antithrombotic peptides and pseudopeptides” (Rhone-Poulenc Rorer Pharmaceuticals Inc., priority 1992, dated 1994)
